# Test system: MRSA EMRSA 15 21698/98
# Experiment: MIC agar dilution, MRSA strain 41
# Type: cell-based
# Conditions: Staphylococcus aureus, 22 hrs
# Procedure: (§1) Molar equivalent concentrations were used to allow comparison between compounds of differing molecular mass. Due to weighing difficulties, any compound in solid form was melted in a water bath prior to dilution. To make ten-times strength concentrations, which takes into account agar dilution, 0.0352 mmol of each compound was weighed into plastic universal bottles and 4 mL of sterile distilled water (SDW) was added. To produce a homogenous emulsion the universals were vortexed; once achieved the emulsions were serial diluted by adding 2 mL to 2 mL of SDW.
# (§2) For every 100 mL of Isosensitest agar (IST) (CM0471; Oxoid, Basingstoke, England), 3.1 g of the IST powder was added to 100 mL SDW (as per manufacturer's instructions) and sterilised for 15 minutes at 121° C. Once sterilised, the molten agar was cooled to 50° C. in a water-bath. Subsequently 4.8 g of CCEY powder (BC2160; Bioconnections, Wetherby, England), also known as Brazier's medium, was added to 100 mL SDW for every 100 mL of agar needed. This was then sterilised for 15 minutes at 121° C. Once sterilised the molten agar was cooled to 50° C. in a water-bath and 4 mL of egg-yolk emulsion (S2073; TCS Biosciences Ltd, Buckingham, United Kingdom) and 1 mL of lysed defibrinated horse blood (HB035; TCS Biosciences Ltd, Buckingham, United Kingdom) were also added for every 100 mL needed. Horse blood lysis is achieved by dilution to half concentration with SDW; when fully lysed the mixture will turn dark red in colour.
# (§3) 18 mL agar was added to each universal and then poured into sterile Petri dishes. This step creates a 1/10 dilution resulting in agar plates of the required strength. Control plates for each set of strains were created by adding 18 mL of agar to 2 mL of SDW.
# (§4) Suspensions of each bacterial species were prepared with a density equal to that of a 0.5 McFarland standard using a densitometer. All suspensions were made using sterile distilled water and fresh 18-20 hour cultures. As a 0.5 McFarland standard contains 1.5×10^8 CFU/mL and the multipoint inoculators applies 1 μL spots of liquid, each bacterial suspension was diluted 1/15 (20 μL suspension to 280 μL sterile distilled water).
# (§5) Bacterial suspensions were prepared from fresh 18-24 hour cultures as previously described. 1 μL of each strain was inoculated onto all 100 agar plates containing a different chemical concentration and the 2 control plates. This was done using a multipoint inoculator which inoculates 20 strains per plate. All plates were incubated for 22 hours at 37° C. in aerobic conditions.
# (§6) Each plate was examined for bacterial growth after 22 and 48 hours, with each being incubated in between examinations. A positive result was recorded as growth of ≧10 colonies. A negative result was recorded as growth of <10 colonies as this is equivalent to 99.9% inhibition. The lowest concentration of chemical that inhibited growth was recorded as the MIC. The results are recorded in Table IV below, where the numbers are quoted in mmol/L.
# (§7) Given the positive performance of the ethoxylates of lauryl alcohol in reducing the MIC for a number of the micro-organisms tested, further MIC testing of Laureth-1 [C12E1] through to Laureth-8 [C12E8] was conducted on each of the following: • 10 strains of vancomycin-resistant enterococci (VRE)—listed in Table V below; and • 20 strains of methicillin-resistant Staphylococcus aureus (MRSA)—listed in Table VI.
# (§8) The alkanol, alkanol derivatives, agar plates, and inocula were all prepared in the same way as described above.
# (§9) The plates were examined in the same manner as described above and the results are recorded in Table VII below, where the numbers are quoted in mmol/L.
row,Compound,MIC [µM]
1,"CCCCCCCCCCCCOCCOCCOCCOCCOCCOCCOCCO [L7, Heptaethylene Glycol Monododecyl Ether]",440

# Same assay, conditions: Staphylococcus aureus, 48 hrs
row,Compound,MIC [µM]
1,"CCCCCCCCCCCCOCCOCCOCCOCCOCCOCCOCCO [L7, Heptaethylene Glycol Monododecyl Ether]",> 440

# Test system: MRSA BEL 97597
# Experiment: MIC agar dilution, MRSA strain 33
# Type: cell-based
# Conditions: Staphylococcus aureus, 22 hrs
# Procedure: as §1, §2, §3, §4, §5, §6, §7, §8, §9
row,Compound,MIC [µM]
1,"CCCCCCCCCCCCOCCOCCOCCOCCOCCOCCOCCO [L7, Heptaethylene Glycol Monododecyl Ether]",220

# Same assay, conditions: Staphylococcus aureus, 48 hrs
row,Compound,MIC [µM]
1,"CCCCCCCCCCCCOCCOCCOCCOCCOCCOCCOCCO [L7, Heptaethylene Glycol Monododecyl Ether]",220

# Test system: Enterococcus faecium (VRE) 12185 Clin waste
# Experiment: MIC agar dilution, VRE strain 24
# Type: cell-based
# Conditions: 22 hrs
# Procedure: as §1, §2, §3, §4, §5, §6, §7, §8, §9
row,Compound,MIC [µM]
1,"CCCCCCCCCCCCOCCOCCOCCOCCOCCOCCOCCO [L7, Heptaethylene Glycol Monododecyl Ether]",> 880

# Same assay, conditions: 48 hrs
row,Compound,MIC [µM]
1,"CCCCCCCCCCCCOCCOCCOCCOCCOCCOCCOCCO [L7, Heptaethylene Glycol Monododecyl Ether]",> 880

# Test system: MRSA GER 131/98 (Sger Iidc)
# Experiment: MIC agar dilution, MRSA strain 35
# Type: cell-based
# Conditions: Staphylococcus aureus, 22 hrs
# Procedure: as §1, §2, §3, §4, §5, §6, §7, §8, §9
row,Compound,MIC [µM]
1,"CCCCCCCCCCCCOCCOCCOCCOCCOCCOCCOCCO [L7, Heptaethylene Glycol Monododecyl Ether]",110

# Same assay, conditions: Staphylococcus aureus, 48 hrs
row,Compound,MIC [µM]
1,"CCCCCCCCCCCCOCCOCCOCCOCCOCCOCCOCCO [L7, Heptaethylene Glycol Monododecyl Ether]",220

# Test system: MRSA EMRSA 15 1729/98
# Experiment: MIC agar dilution, MRSA strain 42
# Type: cell-based
# Conditions: Staphylococcus aureus, 22 hrs
# Procedure: as §1, §2, §3, §4, §5, §6, §7, §8, §9
row,Compound,MIC [µM]
1,"CCCCCCCCCCCCOCCOCCOCCOCCOCCOCCOCCO [L7, Heptaethylene Glycol Monododecyl Ether]",440

# Same assay, conditions: Staphylococcus aureus, 48 hrs
row,Compound,MIC [µM]
1,"CCCCCCCCCCCCOCCOCCOCCOCCOCCOCCOCCO [L7, Heptaethylene Glycol Monododecyl Ether]",440

# Test system: MRSA EMRSA 16 07924/95
# Experiment: MIC agar dilution, MRSA strain 49
# Type: cell-based
# Conditions: Staphylococcus aureus, 22 hrs
# Procedure: as §1, §2, §3, §4, §5, §6, §7, §8, §9
row,Compound,MIC [µM]
1,"CCCCCCCCCCCCOCCOCCOCCOCCOCCOCCOCCO [L7, Heptaethylene Glycol Monododecyl Ether]",> 440

# Same assay, conditions: Staphylococcus aureus, 48 hrs
row,Compound,MIC [µM]
1,"CCCCCCCCCCCCOCCOCCOCCOCCOCCOCCOCCO [L7, Heptaethylene Glycol Monododecyl Ether]",> 440

# Test system: Staphylococcus aureus (MRSA)
# Experiment: MIC agar dilution, micro-organism 12 (11939)
# Type: cell-based
# Conditions: Staphylococcus aureus (MRSA) 11939; 22 hrs; read-out: MIC
# Method in brief: (§10)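 Agar dilution in Isosensitest/CCEY agar with egg yolk and lysed horse blood; compounds as aqueous emulsions (myristyl and lauryl alcohol with 1-methyl-2-pyrrolidone and Tween 20). 1 µL spots of 1/15-diluted 0.5 McFarland suspensions, 37 °C aerobic, read at 22 and 48 h; MIC (mmol/L) is lowest concentration giving <10 colonies.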
row,Compound,MIC [µM]
1,"CCCCCCCCCCCCOCCOCCOCCOCCOCCOCCOCCO [L7, Heptaethylene Glycol Monododecyl Ether]",220

# Same assay, conditions: Staphylococcus aureus (MRSA) 11939; 48 hrs; read-out: MIC
row,Compound,MIC [µM]
1,"CCCCCCCCCCCCOCCOCCOCCOCCOCCOCCOCCO [L7, Heptaethylene Glycol Monododecyl Ether]",220

# Test system: Enterococcus faecium (VRE) 255693 N. Tyneside
# Experiment: MIC agar dilution, VRE strain 22
# Type: cell-based
# Conditions: 22 hrs
# Procedure: as §1, §2, §3, §4, §5, §6, §7, §8, §9
row,Compound,MIC [µM]
1,"CCCCCCCCCCCCOCCOCCOCCOCCOCCOCCOCCO [L7, Heptaethylene Glycol Monododecyl Ether]",> 880

# Same assay, conditions: 48 hrs
row,Compound,MIC [µM]
1,"CCCCCCCCCCCCOCCOCCOCCOCCOCCOCCOCCO [L7, Heptaethylene Glycol Monododecyl Ether]",> 880

# Test system: MRSA EMRSA 15 21268/98
# Experiment: MIC agar dilution, MRSA strain 40
# Type: cell-based
# Conditions: Staphylococcus aureus, 22 hrs
# Procedure: as §1, §2, §3, §4, §5, §6, §7, §8, §9
row,Compound,MIC [µM]
1,"CCCCCCCCCCCCOCCOCCOCCOCCOCCOCCOCCO [L7, Heptaethylene Glycol Monododecyl Ether]",> 440

# Same assay, conditions: Staphylococcus aureus, 48 hrs
row,Compound,MIC [µM]
1,"CCCCCCCCCCCCOCCOCCOCCOCCOCCOCCOCCO [L7, Heptaethylene Glycol Monododecyl Ether]",> 440

# Test system: Enterococcus faecalis (VRE) MB 1969
# Experiment: MIC agar dilution, VRE strain 27
# Type: cell-based
# Conditions: 22 hrs
# Procedure: as §1, §2, §3, §4, §5, §6, §7, §8, §9
row,Compound,MIC [µM]
1,"CCCCCCCCCCCCOCCOCCOCCOCCOCCOCCOCCO [L7, Heptaethylene Glycol Monododecyl Ether]",> 880

# Same assay, conditions: 48 hrs
row,Compound,MIC [µM]
1,"CCCCCCCCCCCCOCCOCCOCCOCCOCCOCCOCCO [L7, Heptaethylene Glycol Monododecyl Ether]",> 880

# Test system: MRSA BEL 97598
# Experiment: MIC agar dilution, MRSA strain 34
# Type: cell-based
# Conditions: Staphylococcus aureus, 22 hrs
# Procedure: as §1, §2, §3, §4, §5, §6, §7, §8, §9
row,Compound,MIC [µM]
1,"CCCCCCCCCCCCOCCOCCOCCOCCOCCOCCOCCO [L7, Heptaethylene Glycol Monododecyl Ether]",> 440

# Same assay, conditions: Staphylococcus aureus, 48 hrs
row,Compound,MIC [µM]
1,"CCCCCCCCCCCCOCCOCCOCCOCCOCCOCCOCCO [L7, Heptaethylene Glycol Monododecyl Ether]",> 440

# Test system: Staphylococcus aureus
# Experiment: MIC agar dilution, micro-organism 13 (6571)
# Type: cell-based
# Conditions: Staphylococcus aureus 6571; 22 hrs; read-out: MIC
# Method in brief: as §10
row,Compound,MIC [µM]
1,"CCCCCCCCCCCCOCCOCCOCCOCCOCCOCCOCCO [L7, Heptaethylene Glycol Monododecyl Ether]",110

# Same assay, conditions: Staphylococcus aureus 6571; 48 hrs; read-out: MIC
row,Compound,MIC [µM]
1,"CCCCCCCCCCCCOCCOCCOCCOCCOCCOCCOCCO [L7, Heptaethylene Glycol Monododecyl Ether]",110

# Test system: MRSA EMRSA 16 00036/95
# Experiment: MIC agar dilution, MRSA strain 46
# Type: cell-based
# Conditions: Staphylococcus aureus, 22 hrs
# Procedure: as §1, §2, §3, §4, §5, §6, §7, §8, §9
row,Compound,MIC [µM]
1,"CCCCCCCCCCCCOCCOCCOCCOCCOCCOCCOCCO [L7, Heptaethylene Glycol Monododecyl Ether]",440

# Same assay, conditions: Staphylococcus aureus, 48 hrs
row,Compound,MIC [µM]
1,"CCCCCCCCCCCCOCCOCCOCCOCCOCCOCCOCCO [L7, Heptaethylene Glycol Monododecyl Ether]",> 440
